# Test results published in patent publication US7541020B2, “Aminoalkyl glucosaminide phosphate compounds and their use as adjuvants and immunoeffectors” (priority 1997, dated 2009).
# Values joined by “and” are separate entries in the source; they are usually repeats but may differ in a detail not shown here. Equal values may be shown once. Read-outs that look alike come from different tables or passages of the source.
# Key:
# [1] = tested on: hepatitis B surface antigen (HBsAg); settings: for % Cytotoxicity (d16, post 2°): HBsAg + 10 μg AGP-AF intranasally; for % Cytotoxicity (d8, post 3°): intranasal HBsAg + 10 μg AGP-AF
# E.G7 (OVA) cells = settings: s.c. 25 μg OVA in AGP preparation, spleen cells 21 days later
# [2] = tested on: hepatitis B surface antigen (HBsAg); assay: Cytotoxic T-lymphocyte response to HBsAg with AGP in stable emulsion (AGP-SE); settings: s.c. 2.0 μg HBsAg + 25 μg AGP/SE
# [3] = tested on: hepatitis B surface antigen (HBsAg); assay: Vaginal wash anti-HBsAg antibody after intranasal HBsAg + AGP-AF; assay type: in vivo, BALB/c mice; settings: 10 days after the booster immunization; intranasal HBsAg + 10 μg AGP-AF
# Text: Vaginal samples were collected 10 days after the booster immunization and assayed for anti-HBsAg antibody.
# [4] = Fever response in rabbits (pyrogenicity); assay type: in vivo; settings: for PYROGENICITY Total Rise ° C., 3 rabbits: 10 ug/kg, cumulative rise ≥1.5 degree in three rabbits is considered pyrogenic
# Procedure: The AGP compounds were also evaluated for their tendency to induce a fever response in rabbits. Each compound was formulated in 10% (v/v) ethanol/water solution at 100 mg/ml, then diluted with D5W to the desired concentration. The material was injected at 3 ml/kg body weight into 3 rabbits. The rise in core temperature of the rabbits was recorded.
# influenza A/HK/68 [5] = tested on: influenza A/HK/68; design: species or system ICR mice; settings: mouse, in vivo
# [6] = tested on: hepatitis B surface antigen (HBsAg); assay: Anti-HBsAg antibody titer with AGP-SE (ELISA plates coated with HBsAg or p72 peptide); settings: sera day 28 post 2°, 25 μg AGP-SE
# influenza A/HK/68 [7] = assay type: in vivo, BALB/c mice; settings: mouse, in vivo
# influenza A/HK/68 [8] = assay type: in vivo, ICR mice; settings: mouse, in vivo
# influenza A/HK/68 [9] = tested on: influenza A/HK/68; design: species or system ICR mice; settings: mouse, in vivo; remark: listed apart in the source
# [10] = tested on: hepatitis B surface antigen (HBsAg); assay: Serum anti-HBsAg antibody titers after intranasal HBsAg + AGP-AF (ELISA); assay type: in vivo, BALB/c mice; settings: for Anti HBsAg Titer^−1 IgG1 / Anti HBsAg Titer^−1 IgG2a: K = 10^3
# influenza A/HK/68 [11] = assay: Second intranasal influenza vaccine experiment with aqueous AGP and MPL formulations: vaginal, tracheal wash and serum titers, protection; assay type: in vivo, BABL/c mice; settings: mouse, in vivo
# tetanus toxoid [12] = settings: mouse, in vivo, sc
# ovalbumin = assay: Stimulation of antiovalbumin antibody production; assay type: in vivo, BDF1 female mice; settings: 50 μg AGP + 50 μg ovalbumin; second immunization day 21; bled 14 days after second injection
# Procedure: BDF1 female mice (8 per group) were immunized with 0.2 ml of emulsions containing 50 μg of the AGPs +50 μg of ovalbumin. A second immunization was administered 21 days post primary. Each mouse was bled 14 days after the second injection.
# tetanus toxoid [13] = tested on: tetanus toxoid; design: species or system BFD1 (C57B1/6X DBA/2) female mice; settings: mouse, in vivo
# IL-1β = assay: Cytokine induction in human whole blood ex vivo culture: IL-1β (ELISA); assay type: cell-based; settings: 4 hr, Table 17
# Outline: (§1)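 Compounds in 10% EtOH-water added at 1:10 to human whole blood, 4 hr at 37° C with rotation; RPMI-treated controls. After PBS dilution and centrifugation, supernatant TNF-α and IL-1β measured by ELISA.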
# TNF-α = assay: Cytokine induction in human whole blood ex vivo culture: TNF-α (ELISA); assay type: cell-based; settings: 4 hr, Table 17
# Outline: as §1
# tetanus toxoid [14] = settings: mouse, in vivo
# [15] = ELISA plates coated with p72 peptide
# [16] = day 22 post 2°, HBsAg + 10 μg AGP-AF intranasally
# [17] = serum, day 21 post 3°, intranasal HBsAg + 10 μg AGP-AF
substance,measurement,setting,value
3-Hydroxy-(S)-2-[(R)-3-dodecanoyloxytetradecanoylamino]propyl 2-Deoxy-4-O-phosphono-2-[(R)-3-dodecanoyloxytetradecanoylamino]-3-O-[(R)-3-dodecanoyloxytetradecanoyl]-β-D-glucopyranoside Triethylammonium Salt [B3],"% Cytotoxicity (d16, post 2°)",[1]; E/T 6.25:1,11%
same,"% Cytotoxicity (d8, post 3°)",[1]; E/T 6.25:1,20%
same,"% Cytotoxicity (d16, post 2°)",[1]; E/T 12.5:1,17%
same,"% Cytotoxicity (d8, post 3°)",[1]; E/T 12.5:1,32%
same,"% Cytotoxicity (d16, post 2°)",[1]; E/T 25:1,26%
same,"% Cytotoxicity (d8, post 3°)",[1]; E/T 25:1,45%
same,"% Cytotoxicity (d16, post 2°)",[1]; E/T 50:1,43%
same,"% Cytotoxicity (d8, post 3°)",[1]; E/T 50:1,54%
same,% Cytotoxicity,E.G7 (OVA) cells; E:T 12.5:1,42%
same,% Cytotoxicity,E.G7 (OVA) cells; E:T 25:1,54%
same,% Cytotoxicity,E.G7 (OVA) cells; E:T 50:1,65%
same,% Cytotoxicity,"[2]; d16, post 2°, E:T 6.25:1",22%
same,% Cytotoxicity,"[2]; d16, post 2°, E:T 12.5:1",32%
same,% Cytotoxicity,"[2]; d16, post 2°, E:T 25:1",47%
same,% Cytotoxicity,"[2]; d16, post 2°, E:T 50:1",81%
same,% Cytotoxicity,"[2]; d17, post 1°, E:T 6.25:1",5%
same,% Cytotoxicity,"[2]; d17, post 1°, E:T 12.5:1",9%
same,% Cytotoxicity,"[2]; d17, post 1°, E:T 25:1",15%
same,% Cytotoxicity,"[2]; d17, post 1°, E:T 50:1",28%
same,Vaginal Wash Anti-HBsAg Titer^−1 IgA,[3],1600
same,Vaginal Wash Anti-HBsAg Titer^−1 IgG,[3],800
same,"PYROGENICITY Total Rise ° C., 3 rabbits",[4],4.2 °C
same,IgG Titer-1 post 1°,influenza A/HK/68 [5],3200
same,IgG Titer-1 post 2°,influenza A/HK/68 [5],"102,400"
same,Percent Survival post 1°,influenza A/HK/68 [5],70%
same,Percent Survival post 2°,influenza A/HK/68 [5],60%
same,Anti-HBsAg Titer^−1 HBsAg IgG1,[6]; ELISA plates coated with HBsAg,512K
same,Anti-HBsAg Titer^−1 HBsAg IgG2a,[6]; ELISA plates coated with HBsAg,1024K
same,Anti-HBsAg Titer^−1 p72-Peptide IgG1,[6]; [15],16K
same,Anti-HBsAg Titer^−1 p72-Peptide IgG2a,[6]; [15],128K
same,Anti-influenza Titer^−1 IgG1,influenza A/HK/68 [7],3200
same,Anti-influenza Titer^−1 IgG2b,influenza A/HK/68 [7],800
same,Anti-influenza Titer^−1 Total IgG,influenza A/HK/68 [7],3200
same,Percent Survival,influenza A/HK/68 [7],87.5%
same,Percent Survival,influenza A/HK/68 [8],0%
same,Titer−1 IgG2a,influenza A/HK/68 [8],50
same,Titer−1 IgG2b,influenza A/HK/68 [8],800
same,Percent Survival,influenza A/HK/68 [9],33%
same,Anti HBsAg Titer^−1 IgA,[10]; [16],"6,400"
same,Anti HBsAg Titer^−1 IgG1,[10]; [16],1000K
same,Anti HBsAg Titer^−1 IgG2a,[10]; [16],500K
same,Anti HBsAg Titer^−1 IgG1,[10]; [17],1000K
same,Anti HBsAg Titer^−1 IgG2a,[10]; [17],1000K
same,Anti HBsAg Titer^−1 IgA,[10]; [17],"25,600"
N-[(R)-3-Decanoyloxytetradecanoyl]-O-[2-deoxy-4-O-phosphono-2-[(R)-3-decanoyloxytetradecanoylamino]-3-O-[(R)-3-decanoyloxytetradecanoyl]-β-D-glucopyranosyl]-L-serine Triethylammonium Salt [B15],"% Cytotoxicity (d16, post 2°)",[1]; E/T 6.25:1,4%
same,"% Cytotoxicity (d8, post 3°)",[1]; E/T 6.25:1,16%
same,"% Cytotoxicity (d16, post 2°)",[1]; E/T 12.5:1,4%
same,"% Cytotoxicity (d8, post 3°)",[1]; E/T 12.5:1,25%
same,"% Cytotoxicity (d16, post 2°)",[1]; E/T 25:1,5%
same,"% Cytotoxicity (d8, post 3°)",[1]; E/T 25:1,42%
same,"% Cytotoxicity (d16, post 2°)",[1]; E/T 50:1,13%
same,"% Cytotoxicity (d8, post 3°)",[1]; E/T 50:1,56%
same,Mucosal IgA Response TW,influenza A/HK/68 [11],11.1
same,Mucosal IgA Response VW,influenza A/HK/68 [11],10.9
same,Percent Protection,influenza A/HK/68 [11],100%
same,Serum IgG Titers,influenza A/HK/68 [11],19.1
same,mucosal adjuvant activity (in words),influenza A/HK/68 [11],act as mucosal adjuvants causing the production of IgA at two mucosal sites
same,% Cytotoxicity,E.G7 (OVA) cells; E:T 12.5:1,30%
same,% Cytotoxicity,E.G7 (OVA) cells; E:T 25:1,49%
same,% Cytotoxicity,E.G7 (OVA) cells; E:T 50:1,58%
same,Anti-tetanus toxoid IgM T/C,tetanus toxoid [12],4.0 and 2.7
same,Anti-tetanus toxoid Total Ig T/C,tetanus toxoid [12],144.5
same,Anti-tetanus toxoid Total Ig Titer,tetanus toxoid [12],"34,400"
same,Anti-tetanus toxoid Total IgG T/C,tetanus toxoid [12],18.85
same,Anti-tetanus toxoid Total IgG Titer,tetanus toxoid [12],"121,600"
same,Vaginal Wash Anti-HBsAg Titer^−1 IgA,[3],3200
same,Vaginal Wash Anti-HBsAg Titer^−1 IgG,[3],50
same,"PYROGENICITY Total Rise ° C., 3 rabbits",[4],3.1 °C
same,PY[…],[4]; rabbits,<0.06 µg/kg
same,Anti-ovalbumin IgG1 T/C,ovalbumin,0.6
same,Anti-ovalbumin IgG1 Titer,ovalbumin,950
same,Anti-ovalbumin IgG2a T/C,ovalbumin,0.3
same,Anti-ovalbumin IgG2a Titer,ovalbumin,113
same,Anti-ovalbumin IgG2b T/C,ovalbumin,16.7
same,Anti-ovalbumin IgG2b Titer,ovalbumin,3963
same,Anti-ovalbumin IgM T/C,ovalbumin,2.3
same,Anti-ovalbumin IgM Titer,ovalbumin,438
same,Anti-ovalbumin Total Ig T/C,ovalbumin,4.1
same,Anti-ovalbumin Total Ig Titer,ovalbumin,925
same,IgG1 T/C Ratio,tetanus toxoid [13],4.1 and 4.5 and 5.5
same,IgM T/C,tetanus toxoid [13],3.14 and 2.29 and 2.86 and 1.71 and 1.57
same,Total Ig T/C,tetanus toxoid [13],233.88 and 181.91 and 170.10 and 248.06 and 166.56
same,Total Ig T/C Ratio,tetanus toxoid [13],3.3 and 5.8 and 5.3
same,IL-1β,IL-1β; Dosage 100 ng/ml,51.6 pg/mL
same,IL-1β,IL-1β; Dosage 500 ng/ml,104 pg/mL
same,IL-1β,IL-1β; Dosage 1000 ng/ml,94.4 pg/mL
same,IL-1β,IL-1β; Dosage 5000 ng/ml,126 pg/mL
same,IL-1β,"IL-1β; Dosage 10,000 ng/ml",153 pg/mL
same,TNF-α,TNF-α; Dosage 100 ng/ml,133 pg/mL
same,TNF-α,TNF-α; Dosage 500 ng/ml,183 pg/mL
same,TNF-α,TNF-α; Dosage 1000 ng/ml,209 pg/mL
same,TNF-α,TNF-α; Dosage 5000 ng/ml,280 pg/mL
same,TNF-α,"TNF-α; Dosage 10,000 ng/ml",320 pg/mL
same,Anti-influenza Titer^−1 IgG1,influenza A/HK/68 [7],3200
same,Anti-influenza Titer^−1 IgG2a,influenza A/HK/68 [7],3200
same,Anti-influenza Titer^−1 IgG2b,influenza A/HK/68 [7],400
same,Anti-influenza Titer^−1 Total IgG,influenza A/HK/68 [7],1600
same,Percent Survival,influenza A/HK/68 [7],100%
same,Percent Survival,influenza A/HK/68 [8],70%
same,Titer^−1 IgG1,influenza A/HK/68 [8],200
same,Titer^−1 IgG2a,influenza A/HK/68 [8],3200
same,Titer^−1 IgG2b,influenza A/HK/68 [8],6400
same,Titer^−1 Total IgG,influenza A/HK/68 [8],3200
same,Anti-influenza Titer^−1 Total IgG,influenza A/HK/68 [9],6400
same,Percent Survival,influenza A/HK/68 [9],50%
same,Anti-Tetanus Toxoid Titer^−1 Fecal Extract IgG,tetanus toxoid [14],50 and 100
same,Anti-Tetanus Toxoid Titer^−1 Vaginal Wash IgA,tetanus toxoid [14],6400
same,Anti-Tetanus Toxoid Titer^−1 Vaginal Wash IgG,tetanus toxoid [14],400 and 800
same,Anti HBsAg Titer^−1 IgA,[10]; [16],"6,400"
same,Anti HBsAg Titer^−1 IgG1,[10]; [16],256K
same,Anti HBsAg Titer^−1 IgG2a,[10]; [16],500K
same,Anti HBsAg Titer^−1 IgG1,[10]; [17],2000K
same,Anti HBsAg Titer^−1 IgG2a,[10]; [17],2000K
same,Anti HBsAg Titer^−1 IgA,[10]; [17],"25,600"
